Assay results reported in ChEMBL document CHEMBL3124895, “Fragment-based discovery of potent inhibitors of the anti-apoptotic MCL-1 protein” (Bioorg Med Chem Lett, 2014).

Each molecule was assayed against Induced myeloid leukemia cell differentiation protein Mcl-1 (Homo sapiens, UniProt Q07820) (assay: Inhibition of human recombinant MCL-1 (174 to 236) expressed in Escherichia coli BL21(DE3) using 6FAM-GELEVEFATQLRRFGDKLN as substrate after 15 mins by fluorescence polarization Assay).
Induced myeloid leukemia cell differentiation protein Mcl-1, sequence (Q07820 whole entry): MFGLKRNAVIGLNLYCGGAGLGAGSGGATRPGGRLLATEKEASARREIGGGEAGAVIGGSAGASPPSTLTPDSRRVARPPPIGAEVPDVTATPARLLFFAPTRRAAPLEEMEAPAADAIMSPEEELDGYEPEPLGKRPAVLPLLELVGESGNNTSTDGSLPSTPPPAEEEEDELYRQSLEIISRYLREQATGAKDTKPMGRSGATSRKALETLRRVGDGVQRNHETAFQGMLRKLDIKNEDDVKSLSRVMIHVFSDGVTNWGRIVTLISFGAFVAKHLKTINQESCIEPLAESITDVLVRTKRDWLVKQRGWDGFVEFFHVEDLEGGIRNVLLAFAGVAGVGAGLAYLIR

Compound	IC50
O=C(O)c1cc(-c2ccccc2)ccc1O	34 µM
Nc1cccc(-c2ccc(O)c(C(=O)O)c2)c1	190 µM
C=Cc1ccc(C(=O)OCC)c(NS(=O)(=O)c2ccccc2)c1	3.4 µM
Cc1ccc(-c2ccc(C(=O)O)c(NS(=O)(=O)c3ccc(Oc4ccccc4)cc3)c2)c2ccccc12	0.5 µM
CCCCCc1ccc(S(=O)(=O)Nc2cc(-c3ccc(C)c4ccccc34)ccc2C(=O)O)cc1	0.3 µM
Cc1ccc(-c2ccc(C(=O)O)c(NS(=O)(=O)c3cccc(N4CCOCC4)c3)c2)c2ccccc12	0.2 µM
Cc1ccc(-c2ccc(C(=O)O)c(NS(=O)(=O)c3ccc(NC(=O)NCC(C)C)cc3)c2)c2ccccc12	0.15 µM
Cc1ccc(-c2ccc(C(=O)O)c(NS(=O)(=O)c3ccc(N4CCOCC4)cc3)c2)c2ccccc12	0.11 µM
Cc1ccc(-c2ccc(C(=O)O)c(NS(=O)(=O)c3ccc(C(=O)N(C)C)cc3)c2)c2ccccc12	0.08 µM
Cc1ccc(-c2ccc(C(=O)O)c(NS(=O)(=O)c3ccc(OCCCN4CCOCC4)cc3)c2)c2ccccc12	0.06 µM
Cc1ccc(-c2ccc(C(=O)O)c(NS(=O)(=O)c3ccc(OCCn4cccn4)cc3)c2)c2ccccc12	0.03 µM
Cc1ccc(-c2ccc(O)c(C(=O)O)c2)cc1	73 µM
CS(=O)(=O)Nc1ccccc1-c1ccc(O)c(C(=O)O)c1	45 µM
O=C(O)c1cc(-c2cccc3ccccc23)ccc1O	31 µM
O=C(O)c1cc(-c2ccc3ncccc3c2)ccc1O	22 µM
Cc1ccccc1-c1ccc(O)c(C(=O)O)c1	22 µM
Cc1ccc(-c2ccc(O)c(C(=O)O)c2)cc1C	6.2 µM
CCCc1ccc(-c2ccc(O)c(C(=O)O)c2)cc1	3.3 µM

Compound	IC50
O=C(O)c1cc(-c2ccc(OCc3ccccc3)cc2)ccc1O	2.2 µM
CCCCOc1ccc(F)c(-c2ccc(O)c(C(=O)O)c2)c1	1.1 µM
Cc1ccc(S(=O)(=O)Nc2ccccc2-c2ccc(O)c(C(=O)O)c2)cc1	> 25 µM
CC(C)(C)OCc1ccccc1-c1ccc(O)c(C(=O)O)c1	> 25 µM
O=C(O)c1cc(-c2ccccc2OCc2ccccc2)ccc1O	7.2 µM
O=C(O)c1cc(-c2ccccc2OCc2ccccc2Cl)ccc1O	0.78 µM
O=C(O)c1cc(-c2ccccc2COc2cccc(C(F)(F)F)c2)ccc1O	0.67 µM
O=C(O)c1cc(-c2ccccc2COc2cccc3ccccc23)ccc1O	0.57 µM
O=C(O)c1ccc(-c2cccc3ncccc23)cc1NS(=O)(=O)c1ccccc1	37 µM
Cc1ccc(-c2ccc(C(=O)O)c(NS(=O)(=O)c3ccccc3)c2)cc1	4.9 µM
Cc1cccc(-c2ccc(C(=O)O)c(NS(=O)(=O)c3ccccc3)c2)c1	1.8 µM
O=C(O)c1ccc(-c2cccc3ccccc23)cc1NS(=O)(=O)c1ccccc1	1 µM
Cc1ccc(-c2ccc(C(=O)O)c(NS(=O)(=O)c3ccccc3)c2)c2ccccc12	0.4 µM
CCC(C)c1ccc(S(=O)(=O)Nc2cc(-c3ccc(C)c4ccccc34)ccc2C(=O)O)cc1 (stereo not given)	1.2 µM
O=C1CC(c2cccc(C(F)(F)F)c2)=NN1	70 µM
Oc1nc2c(ccc3ccccc32)o1	130 µM
CN(C)c1cccc2ccc(O)cc12	280 µM
